Like-named read-outs stand apart in the source and are kept apart here.
Columns and labels:
MDM2 = MDM2 (Homo sapiens, UniProt Q00987); test: fluorescence polarization assay, MDM2 binding
Method: (§3) The MDM2 and MDMX binding evaluation for the target compounds was carried out using the fluorescence polarization assay.
(§4) Dose-dependent MDM2 and MDMX binding evaluations were carried out using the fluorescence polarization assay.
(§5) A total of 30 nM preincubated (30 min) MDM2 (or MDMX) and 10 nM PMDM-F peptide in reaction buffer (100 μL, potassium phosphate, 100 mM; bovine gamma globulin, 100 mg/mL; sodium azide, 0.02%) were added into a 96-well plate containing the tested compounds at pH 7.5.

MDMX = molecular target: T1, MDMX (Homo sapiens, UniProt O15151); test: fluorescence polarization assay, MDMX binding
T1 sequence (O15151 1-490): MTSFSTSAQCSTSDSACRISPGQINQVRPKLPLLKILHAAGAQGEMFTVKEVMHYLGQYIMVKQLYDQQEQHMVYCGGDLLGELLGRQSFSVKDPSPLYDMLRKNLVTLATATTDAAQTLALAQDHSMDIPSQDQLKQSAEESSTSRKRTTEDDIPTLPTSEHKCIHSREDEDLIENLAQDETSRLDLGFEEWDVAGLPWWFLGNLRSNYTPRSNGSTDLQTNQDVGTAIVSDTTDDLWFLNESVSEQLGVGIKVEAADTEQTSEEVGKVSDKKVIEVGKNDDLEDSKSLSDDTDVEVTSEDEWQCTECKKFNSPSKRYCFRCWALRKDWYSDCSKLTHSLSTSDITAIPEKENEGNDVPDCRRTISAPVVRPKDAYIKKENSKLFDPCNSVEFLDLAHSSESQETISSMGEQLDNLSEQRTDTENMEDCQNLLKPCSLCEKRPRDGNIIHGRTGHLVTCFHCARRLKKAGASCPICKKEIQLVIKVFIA
Method: as §3, §4, §5

MCF7 cell line = test: MTT assay, MCF7; assay type: cell-based; conditions: average of three determinations
Method: (§1) Compounds were tested at six concentrations (0.001–100 μM).
(§2) The cells were seeded into a 96-well plate and allowed to attach overnight, after which various concentrations of test compounds or DMSO were added to the culture medium and the cells were incubated for 48 h at 37 °C in a 5% CO2 humidified incubator. Then, 20 μL of 0.5% the fresh MTT solution was added to each well. After incubation for another 4 h, the culture medium was removed and 150 μL of DMSO was added to dissolve the formazan crystals. The absorbance at 540 nm was measured using a microplate reader. The results, expressed as IC50 values, were the average of three determinations and were calculated using nonlinear regression analysis.

HCT116 cell line = test: MTT assay, HCT116; assay type: cell-based; conditions: average of three determinations
Method: as §1, §2

A549 cell line = test: MTT assay, A549; assay type: cell-based; conditions: average of three determinations
Method: as §1, §2

[1] = read-out: Ki (μM) ± SD MDM2, fluorescence polarization, PMDM-F peptide, pH 7.5
[2] = read-out: Ki (μM) ± SD MDMX, fluorescence polarization, PMDM-F peptide, pH 7.5

Sequence of MDM2 (Q00987 whole entry): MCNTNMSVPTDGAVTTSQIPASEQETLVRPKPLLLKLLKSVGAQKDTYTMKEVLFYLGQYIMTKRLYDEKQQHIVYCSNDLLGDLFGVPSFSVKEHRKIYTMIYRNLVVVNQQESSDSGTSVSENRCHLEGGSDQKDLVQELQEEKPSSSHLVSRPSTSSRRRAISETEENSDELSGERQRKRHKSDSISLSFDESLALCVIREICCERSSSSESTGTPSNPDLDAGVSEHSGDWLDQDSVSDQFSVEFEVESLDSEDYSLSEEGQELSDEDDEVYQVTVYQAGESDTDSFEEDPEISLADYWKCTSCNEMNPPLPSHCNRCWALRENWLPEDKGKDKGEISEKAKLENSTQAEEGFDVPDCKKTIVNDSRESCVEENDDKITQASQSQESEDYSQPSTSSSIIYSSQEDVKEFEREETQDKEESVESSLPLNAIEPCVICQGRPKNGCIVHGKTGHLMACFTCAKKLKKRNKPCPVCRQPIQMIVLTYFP

Row | SMILES | melting point [°C] | Ki (MDM2) [µM] | Ki (MDMX) [µM] | other results
1 | COc1ccc(S(=O)(=O)N2C(=O)/C(=C/c3cccc(Cl)c3)c3ccccc32)cc1 [Compound A23, (E)-3-(3-chlorobenzylidene)-1-((4-methoxyphenyl)sulfonyl)indolin-2-one] | 175.1 to 176.7 | 3.77 ± 0.45 | 42.2 ± 4.73 | 
2 | Cc1ccccc1S(=O)(=O)N1C(=O)/C(=C/c2ccccc2Cl)c2ccccc21 [Compound A2, (E)-3-(2-chlorobenzylidene)-1-(o-tolylsulfonyl)indolin-2-one] |  | 7.23 ± 1.03 | > 50 | 
3 | O=C1/C(=C/c2cccc(Cl)c2)c2ccccc2N1S(=O)(=O)c1ccccc1Br [Compound A15] |  |  |  | IC50 (MCF7 cell line; 48 h): 31.1 ± 3.55 µM; Ki (MDM2; [1]): 0.34 ± 0.12 µM; IC50 (HCT116 cell line; 48 h): 23.8 ± 2.69 µM; IC50 (A549 cell line; 48 h): 29.1 ± 3.31 µM; Ki (MDMX; [2]): 24.4 ± 2.57 µM
4 | O=C1/C(=C/c2ccccc2Cl)c2ccccc2N1S(=O)(=O)c1ccccc1Cl [Compound A5, (E)-3-(2-chlorobenzylidene)-1-((2-chlorophenyl)sulfonyl)indolin-2-one] | 157.2 to 158.1 | 3.43 ± 0.57 | 42.1 ± 6.35 | 
5 | O=C1/C(=C/c2cccc(Cl)c2)c2ccccc2N1S(=O)(=O)c1cccc([N+](=O)[O-])c1 [Compound A22, (E)-3-(3-chlorobenzylidene)-1-((3-nitrophenyl)sulfonyl)indolin-2-one] | 195.3 to 197 | 1.39 ± 0.21 | 13.6 ± 1.47 | 
6 | O=C1/C(=C/c2cccc(Cl)c2)c2ccccc2N1S(=O)(=O)c1ccccc1 [Compound A8, (E)-3-(3-chlorobenzylidene)-1-(phenylsulfonyl)indolin-2-one] | 115.1 to 117.3 | 1.47 ± 0.15 | 10.3 ± 1.45 | 
7 | O=C1/C(=C/c2ccccc2Cl)c2ccccc2N1S(=O)(=O)c1cccc(Cl)c1 [Compound A6, (E)-3-(2-chlorobenzylidene)-1-((3-chlorophenyl)sulfonyl)indolin-2-one] |  | 0.92 ± 0.11 | 17.4 ± 2.78 | IC50 (MCF7 cell line; Homo sapiens, MCF7, 48 h): 25.5 ± 3.61 µM; IC50 (HCT116 cell line; Homo sapiens, HCT-116, 48 h): 10.7 ± 1.47 µM; IC50 (A549 cell line; Homo sapiens, A549, 48 h): 18.7 ± 2.49 µM
8 | Cc1ccccc1S(=O)(=O)N1C(=O)/C(=C/c2cccc(Cl)c2)c2ccccc21 [Compound A9, (E)-3-(3-chlorobenzylidene)-1-(o-tolylsulfonyl)indolin-2-one] | 140.9 to 143.2 |  |  | Ki (MDM2; [1]): 6.95 ± 0.97 µM; Ki (MDMX; [2]): > 50 µM
9 | Cc1cccc(S(=O)(=O)N2C(=O)/C(=C/c3ccccc3Cl)c3ccccc32)c1 [Compound A3, (E)-3-(2-chlorobenzylidene)-1-(m-tolylsulfonyl)indolin-2-one] |  | 5.58 ± 0.99 | > 50 | 
10 | O=C1/C(=C/c2cccc(Cl)c2)c2ccc(Cl)cc2N1S(=O)(=O)c1cccc(Cl)c1 [Compound A30, (E)-6-chloro-3-(3-chlorobenzylidene)-1-((3-chlorophenyl)sulfonyl)indolin-2-one] | 132.6 to 133.8 |  |  | Ki (MDM2; [1]): 1.39 ± 0.15 µM; Ki (MDMX; [2]): 29 ± 2.18 µM
11 | Cc1ccc(S(=O)(=O)N2C(=O)/C(=C/c3cccc(Cl)c3)c3ccccc32)cc1 [Compound A11, (E)-3-(3-chlorobenzylidene)-1-tosylindolin-2-one] | 136.3 to 138.1 | 5.19 ± 1.25 | > 50 | 
12 | COc1ccc(C2=N[C@@H](c3ccc(Cl)cc3)[C@@H](c3ccc(Cl)cc3)N2C(=O)N2CCNC(=O)C2)c(OC(C)C)c1 [Nutlin-3a, reference compound] |  |  |  | IC50 (MCF7 cell line; 48 h): 32.2 ± 1.49 µM; IC50 (HCT116 cell line; 48 h): 18.1 ± 2.17 µM; IC50 (A549 cell line; 48 h): 21.7 ± 2.04 µM
13 | Cc1cccc(S(=O)(=O)N2C(=O)/C(=C/c3cccc(Cl)c3)c3ccccc32)c1 [Compound A10, (E)-3-(3-chlorobenzylidene)-1-(m-tolylsulfonyl)indolin-2-one] | 147.4 to 149.2 |  |  | Ki (MDM2; [1]): 5.36 ± 1.06 µM; Ki (MDMX; [2]): > 50 µM
14 | Cc1ccc(S(=O)(=O)N2C(=O)/C(=C/c3ccccc3Cl)c3ccccc32)cc1 [Compound A4, (E)-3-(2-chlorobenzylidene)-1-tosylindolin-2-one] | 148.9 to 150.5 | 10.2 ± 1.45 | > 50 | 
15 | O=C1/C(=C/c2ccccc2Cl)c2ccccc2N1S(=O)(=O)c1ccccc1 [Compound A1, (E)-3-(2-chlorobenzylidene)-1-(phenylsulfonyl)indolin-2-one] | 138.2 to 139.9 | 4.39 ± 0.82 | > 50 | 
16 | O=C1/C(=C/c2ccc(Cl)cc2)c2ccccc2N1S(=O)(=O)c1ccccc1 [Compound A28, (E)-3-(4-chlorobenzylidene)-1-(phenylsulfonyl)indolin-2-one] |  | 2.18 ± 0.29 | 37.4 ± 3.57 | 
17 | Cc1ccccc1S(=O)(=O)N1C(=O)/C(=C/c2ccc(Cl)cc2)c2ccccc21 [Compound A24, (E)-3-(4-chlorobenzylidene)-1-(o-tolylsulfonyl)indolin-2-one] | 155.2 to 157.1 |  |  | Ki (MDM2; [1]): 3.17 ± 0.37 µM; Ki (MDMX; [2]): 34.7 ± 4.02 µM
18 | O=C1/C(=C/c2ccccc2Cl)c2ccccc2N1S(=O)(=O)c1ccc(Cl)cc1 [Compound A7, (E)-3-(2-chlorobenzylidene)-1-((4-chlorophenyl)sulfonyl)indolin-2-one] | 172.4 to 173.1 | 1.53 ± 0.19 | 20.4 ± 2.62 | 
19 | Cc1ccc(S(=O)(=O)N2C(=O)/C(=C/c3ccc(Cl)cc3)c3ccccc32)cc1 [Compound A26, (E)-3-(4-chlorobenzylidene)-1-tosylindolin-2-one] | 134.1 to 135.6 |  |  | Ki (MDM2; [1]): 4.68 ± 0.39 µM; Ki (MDMX; [2]): > 50 µM
20 | Cc1cccc(S(=O)(=O)N2C(=O)/C(=C/c3ccc(Cl)cc3)c3ccccc32)c1 [Compound A25, (E)-3-(4-chlorobenzylidene)-1-(m-tolylsulfonyl)indolin-2-one] |  |  |  | Ki (MDM2; [1]): 4.93 ± 0.47 µM; Ki (MDMX; [2]): > 50 µM

More lines, main results first:

Row | melting point [°C] | Ki (MDM2) [µM] | Ki (MDMX) [µM] | SMILES | other results
21 | 221.3 to 222.7 | 7.86 ± 1.34 | > 50 | O=C1/C(=C/c2ccccc2Cl)c2ccccc2N1C(=O)c1ccc(Cl)cc1 [Compound B3, (E)-1-(4-chlorobenzoyl)-3-(2-chlorobenzylidene)indolin-2-one] | 
22 | 108.3 to 109.7 | 14.9 ± 2.37 | > 50 | O=C1/C(=C/c2cccc(Cl)c2)c2ccccc2N1C(=O)c1ccccc1Cl [Compound B7, (E)-1-(2-chlorobenzoyl)-3-(3-chlorobenzylidene)indolin-2-one] | 
23 | 112.4 to 114 | 8.63 ± 1.55 | > 50 | O=C1/C(=C/c2cccc(Cl)c2)c2ccccc2N1C(=O)c1cccc(Cl)c1 [Compound B8, (E)-1-(3-chlorobenzoyl)-3-(3-chlorobenzylidene)indolin-2-one] | 
24 | 111.2 to 112.8 | 16.4 ± 2.77 | > 50 | Cc1ccccc1C(=O)N1C(=O)/C(=C/c2ccccc2Cl)c2ccccc21 [Compound B4, (E)-3-(2-chlorobenzylidene)-1-(2-methylbenzoyl)indolin-2-one] | 
25 | 219 to 220.8 | 8.43 ± 1.58 | > 50 | O=C1/C(=C/c2ccccc2Cl)c2ccccc2N1C(=O)c1cccc(Cl)c1 [Compound B2, (E)-1-(3-chlorobenzoyl)-3-(2-chlorobenzylidene)indolin-2-one] | 
26 | 145.3 to 146.9 | 22.4 ± 3.64 | > 50 | Cc1ccc(C(=O)N2C(=O)/C(=C/c3ccccc3Cl)c3ccccc32)cc1 [Compound B6, (E)-3-(2-chlorobenzylidene)-1-(4-methylbenzoyl)indolin-2-one] | 
27 | 128.2 to 129.7 | 20.2 ± 3.05 | > 50 | Cc1cccc(C(=O)N2C(=O)/C(=C/c3ccccc3Cl)c3ccccc32)c1 [Compound B5, (E)-3-(2-chlorobenzylidene)-1-(3-methylbenzoyl)indolin-2-one] | 
28 | 214.5 to 216.2 | 10.2 ± 2.01 | > 50 | O=C1/C(=C/c2ccccc2Cl)c2ccccc2N1C(=O)c1ccccc1Cl [Compound B1, (E)-1-(2-chlorobenzoyl)-3-(2-chlorobenzylidene)indolin-2-one] | 
29 | 141.3 to 142.3 | 12.5 ± 1.04 | > 50 | O=C1/C(=C/c2ccc(Cl)cc2)c2ccccc2N1C(=O)c1cccc(Cl)c1 [Compound B10, (E)-1-(3-chlorobenzoyl)-3-(4-chlorobenzylidene)indolin-2-one] | 
30 | 103.5 to 104.8 | 15.9 ± 1.96 | > 50 | O=C1/C(=C/c2cccc(Cl)c2)c2ccccc2N1C(=O)c1ccc(Cl)cc1 [Compound B9, (E)-1-(4-chlorobenzoyl)-3-(3-chlorobenzylidene)indolin-2-one] | 
